Reference: ChEMBL document CHEMBL4665893, “Scalable Synthesis, In Vitro cccDNA Reduction, and In Vivo Antihepatitis B Virus Activity of a Phosphonomethoxydeoxythreosyl Adenine Prodrug” (J Med Chem, 2020)
Active and inactive are the calls of the source. The calls are words filed in the database; no cut-off is given here.

Key:
[1] = Toxicity in C57BL/6 female mouse assessed as reduction in hematocrit level at 60 mg/kg, po for 14 days by hematology analysis; type: organism-based; conditions: in vivo, 336 h, time 14 day
[2] = Toxicity in C57BL/6 male mouse assessed as effect on clinical chemistry level at 60 mg/kg, po for 14 days; type: organism-based; conditions: in vivo, 336 h, time 14 day
Hepatitis B virus [3] = assay: Antiviral activity against ETV-resistant and adenovirus AdH294-7LR harboring wild-type HBV infected in human HepG2 cells assessed as viral replicative intermediate DNA level at 120 nM incubated for 5 days by Southern blot analysis (reference value: 100%); type: functional; conditions: time 5 day
Hepatitis B virus [4] = assay: Antiviral activity against ETV-resistant and adenovirus AdH294-7LR harboring wild-type HBV infected in human HepG2 cells assessed as viral replicative intermediate DNA level at 10000 nM incubated for 5 days by Southern blot analysis (reference value: 100%); type: functional; conditions: time 5 day
[5] = Toxicity in C57BL/6 male mouse assessed as reduction in hemoglobin level at 60 mg/kg, po for 14 days by hematology analysis; type: organism-based; conditions: in vivo, 336 h, time 14 day
Hepatitis B virus [6] = assay: Antiviral activity against ETV-resistant and adenovirus AdH294-7LR harboring wild-type HBV infected in human HepG2 cells assessed as reduction in viral replicative intermediate DNAs at 4 to 1000 nM incubated for 5 days by Southern blot analysis; type: functional, organism-based; conditions: time 5.0 day
[7] = Toxicity in C57BL/6 female mouse assessed as increase in neutrophils level at 60 mg/kg, po for 14 days by hematology analysis; type: organism-based; conditions: in vivo, 336 h, time 14 day
Hepatitis B virus [8] = assay: Antiviral activity against ETV-resistant and adenovirus AdH294-7LR harboring wild-type HBV infected in human HepG2 cells assessed as viral replicative intermediate DNA level at 370 nM incubated for 5 days by Southern blot analysis (reference value: 100%); type: functional; conditions: time 5 day
[9] = Toxicity in human HepDE19 cells assessed as reduction in beta-actin level incubated for 9 days by qPCR analysis; type: cell-based; conditions: time 9 day
[10] = Toxicity in C57BL/6 mouse assessed as induction of mortality at 60 mg/kg, po for 14 days; type: organism-based; conditions: in vivo, 336 h, time 14 day
[11] = Toxicity in C57BL/6 female mouse assessed as reduction in hemoglobin level at 60 mg/kg, po for 14 days by hematology analysis; type: organism-based; conditions: in vivo, 336 h, time 14 day
Hepatitis B virus [12] = assay: Antiviral activity against adenovirus AdH294-WT harboring wild-type HBV genotype D accession #V01460 infected in human HepG2 cells assessed as reduction in viral replicative intermediate DNA level at 370 nM incubated for 5 days by Southern blot analysis (reference value: 100%); type: functional; set-up: scale not given: the % may be the effect or the level left; conditions: time 5 day
Hepatitis B virus [13] = assay: Antiviral activity against ETV-resistant and adenovirus AdH294-7LR harboring wild-type HBV infected in human HepG2 cells assessed as viral replicative intermediate DNA level at 13 nM incubated for 5 days by Southern blot analysis (reference value: 100%); type: functional; conditions: time 5 day
[14] = Toxicity in C57BL/6 male mouse assessed as increase in LDL-C level at 60 mg/kg, po for 14 days; type: organism-based; conditions: in vivo, 336 h, time 14 day
[15] = Toxicity in C57BL/6 female mouse assessed as reduction in lymphocytes level at 60 mg/kg, po for 14 days by hematology analysis; type: organism-based; conditions: in vivo, 336 h, time 14 day
Hepatitis B virus [16] = assay: Antiviral activity against adenovirus AdH294-WT harboring wild-type HBV genotype D accession #V01460 infected in human HepG2 cells assessed as reduction in viral replicative intermediate DNA level at 10000 nM incubated for 5 days by Southern blot analysis (reference value: 100%); type: functional; set-up: scale not given: the % may be the effect or the level left; conditions: time 5 day
[17] = Genotoxicity in Salmonella typhimurium TA1535 assessed as increase in number of spontaneous revertants colonies by Ames test; type: toxicity; conditions: salmonella enterica subsp. enterica serovar typhimurium, 1 µM
[18] = Toxicity in C57BL/6 male mouse assessed as reduction in mean corpuscular volume level at 60 mg/kg, po for 14 days by hematology analysis; type: organism-based; conditions: in vivo, 336 h, time 14 day
Hepatitis B virus [19] = assay: Antiviral activity against ETV-resistant and adenovirus AdH294-7LR harboring wild-type HBV infected in human HepG2 cells assessed as viral replicative intermediate DNA level at 1100 nM incubated for 5 days by Southern blot analysis (reference value: 100%); type: functional; conditions: time 5 day
[20] = Toxicity in C57BL/6 male mouse assessed as reduction in erythrocytes level at 60 mg/kg, po for 14 days by hematology analysis; type: organism-based; conditions: in vivo, 336 h, time 14 day
Hepatitis B virus [21] = assay: Antiviral activity against adenovirus AdH294-WT harboring wild-type HBV genotype D accession #V01460 infected in human HepG2 cells assessed as reduction in viral replicative intermediate DNA level at 4 nM incubated for 5 days by Southern blot analysis (reference value: 100%); type: functional; set-up: scale not given: the % may be the effect or the level left; conditions: time 5 day
[22] = Toxicity in HBV infected hydrodynamic injection C57BL/6 mouse model assessed as effect on body weight at 0.6 to 60 mg/kg, po QD for 6 days; type: organism-based; conditions: in vivo, 144 h, dose 0.6-60 mg/kg, time 6 day
[23] = Toxicity in C57BL/6 male mouse assessed as reduction in lymphocytes level at 60 mg/kg, po for 14 days by hematology analysis; type: organism-based; conditions: in vivo, 336 h, time 14 day
[24] = Toxicity in C57BL/6 male mouse assessed as reduction in food consumption loss at 60 mg/kg, po for 11 days relative to control; type: organism-based; conditions: in vivo, 264 h, time 11 day
Hepatitis B virus [25] = assay: Antiviral activity against adenovirus AdH294-WT harboring wild-type HBV genotype D accession #V01460 infected in human HepG2 cells assessed as reduction in viral replicative intermediate DNA level at 3300 nM incubated for 5 days by Southern blot analysis (reference value: 100%); type: functional; set-up: scale not given: the % may be the effect or the level left; conditions: time 5 day
[26] = Toxicity in C57BL/6 female mouse assessed as effect on clinical chemistry level at 60 mg/kg, po for 14 days; type: organism-based; conditions: in vivo, 336 h, time 14 day
[27] = Toxicity in C57BL/6 female mouse assessed as increase in thymus weight level at 60 mg/kg, po for 14 days; type: organism-based; conditions: in vivo, 336 h, time 14 day
[28] = Toxicity in C57BL/6 mouse assessed as induction of body weight loss at 60 mg/kg, po for 14 days relative to control; type: organism-based; conditions: in vivo, 336 h, time 14 day
Hepatitis B virus [29] = assay: Antiviral activity against HBV infected in human HepDE19 cells assessed as reduction in HBV cccDNA incubated for 9 days by qPCR analysis; type: functional, organism-based; conditions: HepDE19, 216 h
[30] = Toxicity in C57BL/6 male mouse assessed as reduction in hematocrit level at 60 mg/kg, po for 14 days by hematology analysis; type: organism-based; conditions: in vivo, 336 h, time 14 day
[31] = Genotoxicity in Salmonella typhimurium TA1537 assessed as increase in number of spontaneous revertants colonies by Ames test; type: toxicity; conditions: salmonella enterica subsp. enterica serovar typhimurium, 1 µM
[32] = Plasma concentration in C57BL/6 mouse at 6 mg/kg, po administered as single dose after 0.25 to 24 hrs by LC/MS/MS analysis; type: ADME, organism-based; conditions: in vivo, time 0.25-24 hrs
[33] = Toxicity in C57BL/6 mouse assessed as induction of functional deficit at 60 mg/kg, po for 14 days; type: organism-based; conditions: in vivo, 336 h, time 14 day
[34] = Selectivity index, […] against HBV infected in human HepDE19 cells to CC50 for toxicity in human HepDE19 cells; type: cell-based; conditions: read-out: Ratio CC50/IC50
[35] = Toxicity in C57BL/6 male mouse assessed as increase in neutrophils level at 60 mg/kg, po for 14 days by hematology analysis; type: organism-based; conditions: in vivo, 336 h, time 14 day

With `CC(C)CCOC(=O)C[C@H](NP(=O)(CO[C@H]1CO[C@@H](n2cnc3c(N)ncnc32)C1)Oc1ccccc1)C(=O)OCCC(C)C` (mixture of isomers) the Activity [1] was “Non-Toxic”, the Activity [2] was “Non-Toxic” and the Activity (Hepatitis B virus [3]) was 38.5%. The Activity (Hepatitis B virus [4]) was 5.9%, the Activity [5] was “Toxic” and the Activity (Hepatitis B virus [6]) was “Active”. For the same compound, the Activity [7] was “Non-Toxic”, the Activity (Hepatitis B virus [8]) was 20.2% and the CC50 at 216 h [9] was 230 nM. For the same compound, the Activity [10] was “Non-Toxic”, the Activity [11] was “Non-Toxic” and the Activity (Hepatitis B virus [12]) was 1.8%. For the same compound, the Activity (Hepatitis B virus [13]) was 101.5%, the Activity [14] was “Toxic” and the Activity [15] was “Non-Toxic”. For the same compound, the Activity (Hepatitis B virus [16]) was 0%, the Activity [17] was “Non-Toxic” and the Activity [18] was “Toxic”. The Activity (Hepatitis B virus [19]) was 18.1%, the Activity [20] was “Toxic” and the Activity (Hepatitis B virus [21]) was 39.1%. The Activity [22] was “Non-Toxic”, the Activity [23] was “Toxic” and the Activity [24] was “Toxic”. For the same compound, the Activity (Hepatitis B virus [25]) was 0%, the Activity [26] was “Non-Toxic” and the Activity [27] was “Toxic”. The Activity [28] was 4%, the IC50 (Hepatitis B virus [29]) was 6 nM and the IC90 (Hepatitis B virus [29]; time 9 day) was 70 nM. For the same compound, the Activity [30] was “Toxic”, the Activity [31] was “Non-Toxic” and the Cp [32] was less than 1.01 ng/mL. The Activity [33] was “Non-Toxic”, the selectivity ratio [34] was 37 and the Activity [35] was “Toxic”.
